Results reported in PubChem BioAssay (NCI).
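Exposure lasted 48 hours, with cells grown in 96-well plates and compounds tested at five concentrations. GI50 is the concentration that inhibits growth by half. TGI: concentration producing complete growth inhibition.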

Assays:
Test in all cases: NCI tumour cell line growth inhibition, 48 h
UACC-257 melanoma = test system: UACC-257 melanoma
NCI/ADR-RES ovarian = test system: NCI/ADR-RES ovarian
SNB-19 CNS = test system: SNB-19 CNS
K-562 leukemia = test system: K-562 leukemia
HCT-15 colon = test system: HCT-15 colon
MCF7 breast = test system: MCF7 breast
DU-145 prostate = test system: DU-145 prostate
RPMI-8226 leukemia = test system: RPMI-8226 leukemia
SN12C renal = test system: SN12C renal
MOLT-4 leukemia = test system: MOLT-4 leukemia
UO-31 renal = test system: UO-31 renal
SK-OV-3 ovarian = test system: SK-OV-3 ovarian
SF-295 CNS = test system: SF-295 CNS
EKVX NSCLC = test system: EKVX NSCLC
PC-3 prostate = test system: PC-3 prostate
OVCAR-5 ovarian = test system: OVCAR-5 ovarian
OVCAR-8 ovarian = test system: OVCAR-8 ovarian
SR leukemia = test system: SR leukemia
MDA-MB-231 breast = test system: MDA-MB-231 breast
OVCAR-4 ovarian = test system: OVCAR-4 ovarian
NCI-H226 lung = test system: NCI-H226 lung
NCI-H460 lung = test system: NCI-H460 lung
A549 NSCLC = test system: A549 NSCLC
SF-268 CNS = test system: SF-268 CNS
UACC-62 melanoma = test system: UACC-62 melanoma
KM12 colon = test system: KM12 colon
HOP-62 NSCLC = test system: HOP-62 NSCLC
ACHN renal = test system: ACHN renal
SW-620 colon = test system: SW-620 colon
MDA-MB-435 = test system: MDA-MB-435
BT-549 breast = test system: BT-549 breast
COLO 205 colon = test system: COLO 205 colon
NCI-H522 lung = test system: NCI-H522 lung
NCI-H23 lung = test system: NCI-H23 lung
RXF 393 renal = test system: RXF 393 renal
CAKI-1 renal = test system: CAKI-1 renal
HOP-92 NSCLC = test system: HOP-92 NSCLC
SK-MEL-28 melanoma = test system: SK-MEL-28 melanoma
LOX IMVI melanoma = test system: LOX IMVI melanoma
M14 melanoma = test system: M14 melanoma
HS 578T breast = test system: HS 578T breast
SNB-75 CNS = test system: SNB-75 CNS
HCC-2998 colon = test system: HCC-2998 colon
OVCAR-3 ovarian = test system: OVCAR-3 ovarian
HT29 colon = test system: HT29 colon
SK-MEL-2 melanoma = test system: SK-MEL-2 melanoma
MALME-3M melanoma = test system: MALME-3M melanoma
T-47D breast = test system: T-47D breast
CCRF-CEM leukemia = test system: CCRF-CEM leukemia
HL-60(TB) leukemia = test system: HL-60(TB) leukemia
IGROV1 ovarian = test system: IGROV1 ovarian
786-0 renal = test system: 786-0 renal
U251 CNS = test system: U251 CNS
SF-539 CNS = test system: SF-539 CNS
A498 renal = test system: A498 renal
HCT-116 colon = test system: HCT-116 colon
SK-MEL-5 melanoma = test system: SK-MEL-5 melanoma

CC(=O)OC[C@]12CC[C@H]3[C@@H](C[C@H]4O[C@]45CC=CC(=O)[C@]35C)[C@]1(O)CC[C@@]2(O)[C@@](C)(O)C1CC(C)=C(C)C(=O)O1 (stereo partly drawn)
TGI (UACC-257 melanoma): > 32.8 µM | GI50 (NCI/ADR-RES ovarian): > 23.6 µM | TGI (NCI/ADR-RES ovarian): > 100 µM | TGI (SNB-19 CNS): > 35.4 µM | TGI (K-562 leukemia): > 100 µM | TGI (HCT-15 colon): > 33.6 µM | TGI (MCF7 breast): > 25.3 µM | TGI (DU-145 prostate): > 32.8 µM | GI50 (RPMI-8226 leukemia): > 100 µM | TGI (RPMI-8226 leukemia): > 100 µM | TGI (SN12C renal): > 32 µM | TGI (MOLT-4 leukemia): > 36.2 µM | TGI (UO-31 renal): > 25 µM | TGI (SK-OV-3 ovarian): > 23.7 µM | TGI (SF-295 CNS): > 32.5 µM | TGI (EKVX NSCLC): > 30.4 µM | TGI (PC-3 prostate): > 26.1 µM | TGI (OVCAR-5 ovarian): > 20.1 µM | TGI (OVCAR-8 ovarian): > 32.1 µM | TGI (SR leukemia): > 38 µM | TGI (MDA-MB-231 breast): > 23.6 µM | TGI (OVCAR-4 ovarian): > 34.9 µM | TGI (NCI-H226 lung): > 20 µM

COc1ccc(-n2c(SCc3cc(OC)c(OC)c(OC)c3)nc3ccc(C)cc3c2=O)cc1
GI50 (UACC-257 melanoma): 64.4 µM | TGI (UACC-257 melanoma): > 100 µM | GI50 (NCI/ADR-RES ovarian): 3.71 µM | TGI (NCI/ADR-RES ovarian): > 100 µM | GI50 (SNB-19 CNS): > 100 µM | TGI (SNB-19 CNS): > 100 µM | GI50 (K-562 leukemia): 3.89 µM | TGI (K-562 leukemia): > 100 µM | GI50 (NCI-H460 lung): 3.83 µM | TGI (NCI-H460 lung): > 100 µM | GI50 (HCT-15 colon): 5.24 µM | TGI (HCT-15 colon): > 100 µM | GI50 (A549 NSCLC): 4.75 µM | TGI (A549 NSCLC): > 100 µM | GI50 (SF-268 CNS): 55.2 µM | TGI (SF-268 CNS): > 100 µM | GI50 (UACC-62 melanoma): 6.82 µM | TGI (UACC-62 melanoma): > 100 µM | GI50 (KM12 colon): 4.57 µM | TGI (KM12 colon): > 100 µM | GI50 (HOP-62 NSCLC): 29.1 µM | TGI (HOP-62 NSCLC): > 100 µM | GI50 (ACHN renal): 42.9 µM | TGI (ACHN renal): > 100 µM | GI50 (SW-620 colon): 4.35 µM | TGI (SW-620 colon): > 100 µM | GI50 (MDA-MB-435): 1.88 µM | TGI (MDA-MB-435): 4.72 µM | GI50 (BT-549 breast): 7.37 µM | TGI (BT-549 breast): > 100 µM | GI50 (COLO 205 colon): 5.24 µM | TGI (COLO 205 colon): > 100 µM | GI50 (MCF7 breast): 3.71 µM | TGI (MCF7 breast): > 100 µM | GI50 (NCI-H522 lung): 4.41 µM | TGI (NCI-H522 lung): > 100 µM | GI50 (NCI-H23 lung): 32.7 µM | TGI (NCI-H23 lung): > 100 µM | GI50 (DU-145 prostate): > 100 µM | TGI (DU-145 prostate): > 100 µM | GI50 (RPMI-8226 leukemia): 2.55 µM | TGI (RPMI-8226 leukemia): 50.9 µM | GI50 (RXF 393 renal): 70.4 µM | TGI (RXF 393 renal): > 100 µM | GI50 (CAKI-1 renal): 4.53 µM | TGI (CAKI-1 renal): > 100 µM | GI50 (HOP-92 NSCLC): 1.75 µM | TGI (HOP-92 NSCLC): > 100 µM | GI50 (SN12C renal): 52.7 µM | TGI (SN12C renal): > 100 µM | GI50 (SK-MEL-28 melanoma): 25.9 µM | TGI (SK-MEL-28 melanoma): > 100 µM | GI50 (MOLT-4 leukemia): 5.19 µM | TGI (MOLT-4 leukemia): > 100 µM | GI50 (LOX IMVI melanoma): 17.2 µM | TGI (LOX IMVI melanoma): > 100 µM | GI50 (UO-31 renal): 5.56 µM | TGI (UO-31 renal): > 100 µM | GI50 (SK-OV-3 ovarian): 9.74 µM | TGI (SK-OV-3 ovarian): > 100 µM | GI50 (SF-295 CNS): 4.36 µM | TGI (SF-295 CNS): > 100 µM | GI50 (M14 melanoma): 4.26 µM | TGI (M14 melanoma): > 100 µM | GI50 (HS 578T breast): 6.06 µM | TGI (HS 578T breast): > 100 µM | GI50 (SNB-75 CNS): 2.76 µM | TGI (SNB-75 CNS): > 100 µM | GI50 (PC-3 prostate): 2.83 µM | TGI (PC-3 prostate): > 100 µM | GI50 (HCC-2998 colon): > 100 µM | TGI (HCC-2998 colon): > 100 µM | GI50 (OVCAR-3 ovarian): 4.87 µM | TGI (OVCAR-3 ovarian): > 100 µM | GI50 (HT29 colon): 4.3 µM | TGI (HT29 colon): > 100 µM | GI50 (SK-MEL-2 melanoma): 8.73 µM | TGI (SK-MEL-2 melanoma): > 100 µM | GI50 (MALME-3M melanoma): 59.8 µM | TGI (MALME-3M melanoma): > 100 µM | GI50 (OVCAR-5 ovarian): > 100 µM | TGI (OVCAR-5 ovarian): > 100 µM | GI50 (T-47D breast): 5.46 µM | TGI (T-47D breast): > 100 µM | GI50 (OVCAR-8 ovarian): > 100 µM | TGI (OVCAR-8 ovarian): > 100 µM | GI50 (CCRF-CEM leukemia): 1.58 µM | TGI (CCRF-CEM leukemia): > 100 µM | GI50 (HL-60(TB) leukemia): 3.74 µM | TGI (HL-60(TB) leukemia): > 100 µM | GI50 (IGROV1 ovarian): > 100 µM | TGI (IGROV1 ovarian): > 100 µM | GI50 (786-0 renal): > 100 µM | TGI (786-0 renal): > 100 µM | GI50 (U251 CNS): 7.87 µM | TGI (U251 CNS): > 100 µM | GI50 (SF-539 CNS): 14.8 µM | TGI (SF-539 CNS): > 100 µM | GI50 (A498 renal): 1.95 µM | TGI (A498 renal): 16.9 µM | GI50 (MDA-MB-231 breast): 5.73 µM | TGI (MDA-MB-231 breast): > 100 µM | GI50 (OVCAR-4 ovarian): 9.9 µM | TGI (OVCAR-4 ovarian): > 100 µM | GI50 (HCT-116 colon): 3.38 µM | TGI (HCT-116 colon): > 100 µM | GI50 (SK-MEL-5 melanoma): 3.58 µM | TGI (SK-MEL-5 melanoma): > 100 µM | GI50 (NCI-H226 lung): > 100 µM | TGI (NCI-H226 lung): > 100 µM
